Experiments:
[1] = Stability of purified CBDA in solution; type: physicochemical
From the text: This undesirable decarboxylation of the purified material might be minimised by manipulation of CBDA at sub-ambient temperatures.

[2] = molecular target: CB2 (Peripheral receptors) (Homo sapiens, UniProt P34972); settings: cited from earlier work
CB2 (Peripheral receptors), sequence (P34972 whole entry, species assumed): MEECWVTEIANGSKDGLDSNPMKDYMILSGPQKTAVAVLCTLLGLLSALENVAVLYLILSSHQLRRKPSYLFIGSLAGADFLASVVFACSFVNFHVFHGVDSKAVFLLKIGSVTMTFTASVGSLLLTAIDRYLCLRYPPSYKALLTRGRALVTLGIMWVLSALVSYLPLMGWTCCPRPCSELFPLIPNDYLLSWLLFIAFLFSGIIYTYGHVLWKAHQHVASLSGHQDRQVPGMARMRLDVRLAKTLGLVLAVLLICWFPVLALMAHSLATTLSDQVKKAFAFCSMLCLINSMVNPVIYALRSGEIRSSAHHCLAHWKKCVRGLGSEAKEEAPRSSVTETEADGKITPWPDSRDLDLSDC

Structure (SMILES)	decarboxylation in solution (CBDA→CBD+CO2) [1]	binding to CB2 receptors [2]
C=C(C)[C@@H]1CCC(C)=C[C@H]1c1c(O)cc(CCCCC)c(C(=O)O)c1O [CBDA]	slowly decarboxylates in solution	
CCCCCc1cc(O)c2c(c1)OC(C)(C)[C@@H]1CCC(C)=C[C@@H]21 [THC, delta^9-tetrahydrocannabinol]		bound with high avidity

From patent publication US8034843B2, “Compositions comprising cannabinoids for treatment of nausea, vomiting, emesis, motion sickness or like conditions” (priority 2002, dated 2011)
